In PubChem BioAssay (NCI):
“And” between values parts separate entries of the source, which are not always exact repeats. Equal values may be shown once.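 Growth conditions: 96-well plates. Treatment: test compound, 48 hours, 5 concentrations. Analysis: linear interpolation between bracketing concentrations; unreached endpoints set to highest concentration. GI50: concentration for 50% inhibition of growth. At the TGI there is no net growth.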

Legend:
Assay in all cases: NCI-60 cell line screen, 48 h
HCC-2998 colon = system: HCC-2998 colon
HCT-116 colon = system: HCT-116 colon
HOP-92 NSCLC = system: HOP-92 NSCLC
K-562 leukemia = system: K-562 leukemia
M14 melanoma = system: M14 melanoma
NCI-H522 lung = system: NCI-H522 lung
RXF 393 renal = system: RXF 393 renal
SNB-19 CNS = system: SNB-19 CNS
KM20L2 colon = system: KM20L2 colon
LXFL 529 NSCLC = system: LXFL 529 NSCLC

| Structure (SMILES) | GI50 (HCC-2998 colon) [µM] | TGI (HCC-2998 colon) | GI50 (HCT-116 colon) [µM] | TGI (HCT-116 colon) | GI50 (HOP-92 NSCLC) [µM] | TGI (HOP-92 NSCLC) | GI50 (K-562 leukemia) [µM] | TGI (K-562 leukemia) [µM] | GI50 (M14 melanoma) [µM] | TGI (M14 melanoma) | GI50 (NCI-H522 lung) [µM] | TGI (NCI-H522 lung) [µM] | GI50 (RXF 393 renal) [µM] | TGI (RXF 393 renal) | GI50 (SNB-19 CNS) [µM] | TGI (SNB-19 CNS) | TGI (KM20L2 colon) [µM] | TGI (LXFL 529 NSCLC) [µM] |
| --- | --- | --- | --- | --- | --- | --- | --- | --- | --- | --- | --- | --- | --- | --- | --- | --- | --- | --- |
| CCN(CC)CC(O)CNc1c2ccc([N+](=O)[O-])cc2nc2cc(OC)c(OC)cc12 (stereo not given) | 0.24 | 0.576 µM | 0.2 | 0.636 µM | 0.164 | 0.642 µM | 0.396 | 10.9 | 0.368 | 1.55 µM | 0.267 | 0.823 | 0.469 | 1.86 µM | 0.24 | 1.31 µM |  |  |
| COC(=O)C(C(=O)OC)C1CCCC(=O)C1 (stereo not given) |  | > 100 µM |  | > 100 µM |  | > 100 µM |  | > 100 |  | > 100 µM |  |  |  | > 100 µM |  | > 100 µM | > 100 | > 100 |
| O=C(Nc1ccncc1)C(=O)c1cn(S(=O)(=O)c2ccc(Cl)cc2)c2ccccc12 | 10.3 | > 100 µM | 0.415 | > 48.9 µM | 1.12 | 19.9 µM | 1.08 | > 100 | 0.634 | > 52.1 µM | 0.279 | 1.08 | 3.71 | 35.7 µM | 5.94 | 51.5 µM |  |  |
| Cn1cnc([N+](=O)[O-])c1Sc1nccn1-c1cccc2ccccc12 |  | > 100 µM |  | 60.3 µM |  | 54.9 µM |  | > 100 |  | 61 µM |  | 22.4 |  |  |  | > 100 µM | > 100 | 99.4 |
| O=c1cc(-c2cccc3c2Sc2ccccc2S3)oc(N2CCOCC2)c1 | 11.6 | 25.8 µM | 9.55 | 22.6 µM | 6.91 | 21.9 µM | 5.98 | 30.9 | 11.1 | 24.3 µM | 8.01 | 22.6 | 1.76 | 8.05 µM | 13.9 | 33.6 µM |  |  |
| C/C(CC(=O)Nc1ccc(C)c(C)c1)=N\NC(N)=O |  | > 100 µM |  | > 100 µM |  | > 100 µM |  | > 100 |  | > 100 µM |  | > 100 |  | > 100 µM |  |  | > 100 | > 100 |
| Cc1cccc(C(C)(C)C)c1NC(=O)CC1C(=O)Nc2ccccc2S1(=O)=O (stereo not given) |  | 20.5 µM |  | 22.3 µM |  | 25.3 µM |  | 13 |  | 27.8 µM |  |  |  | 29 µM |  | 29.2 µM | 22.3 | 24.5 |
| C[As](C)SCC(COC(=O)C(Cl)c1ccccc1)OC(=O)C(Cl)c1ccccc1 (stereo not given) | 1.72 | 4.75 µM | 0.439 | 2.67 µM | 0.381 | 3.9 µM | 0.147 |  | 0.614 | 15.7 µM | 0.361 | > 38.8 | 0.641 | 15 µM | 14.5 | 50 µM |  |  |
| CCOC(=O)N1CCC(=O)C(CNC23CC4CC(CC(C4)C2)C3)C1 (stereo not given) |  |  |  |  |  | 41 µM |  | 31.2 |  |  |  | 34 |  | 33.2 µM |  | > 100 µM | > 100 | 33.3 |
| O=C(NCCCO)c1cc(Cl)ccc1O | 3.1 | 14.3 µM | 1.75 | 10.5 µM | 0.468 | 3.37 µM | 0.901 | 18.4 | 3.85 | 15.7 µM | 1.12 | 4.77 | 3.94 | 12.9 µM | 2.26 | 17.6 µM |  |  |
| CN1C(=O)C2C3C=C4c5ccccc5N(c5ccccc5)C4(C2C1=O)[C@H]1C(=O)N(C)C(=O)[C@@H]31 (stereo not given in full) |  | > 100 µM |  | > 100 µM |  | > 100 µM |  | > 100 |  | > 100 µM |  | > 100 |  |  |  | > 100 µM | > 100 | > 100 |
| Cc1cc(N2CCOCC2)nc(N[C@@H]2CCC[C@H](Nc3ccnc4cc(Cl)ccc34)C2)n1 | 2.05 | 4.55 µM | 1.98 | 4.26 µM | 1.44 | 3.08 µM | 1.21 | 3.69 | 2 | 3.7 µM | 2.97 | 6.23 | 1.44 | 3.11 µM | 3.35 | 12.2 µM |  |  |
| Nc1nc2c(ncn2C2C=CC(CO)C2)c(=O)[nH]1 (stereo not given) |  | > 100 µM |  | > 100 µM |  | > 100 µM |  | > 100 |  | > 100 µM |  | > 100 |  | > 100 µM |  | > 100 µM |  |  |
| CC(C)=CCC/C(C)=C/CC/C(C)=C/CSc1ccccc1C(=O)O | 28.9 | 92.4 µM and 33.6 µM |  | 56.7 µM and 30.4 µM | 19.3 | 57.1 µM and 59.7 µM | 26.2 | > 100 | 25.6 | > 95 µM and 40.6 µM | 21.6 | 52 | 22.2 | 52.3 µM and 56 µM | 39.7 | > 100 µM and 41.1 µM |  |  |
| S=C(Nc1ccc(-c2nc3ccccc3[nH]2)cc1)Nc1ccc(-c2nc3ccccc3[nH]2)cc1 | 45.8 | > 100 µM | 55.4 | > 100 µM | > 100 | > 100 µM | 83.4 | > 100 | 60.3 | > 100 µM | 24.5 | 99.4 | > 100 | > 100 µM | > 100 | > 100 µM |  |  |
| NCCCCCCCn1c2c(c3ccccc3c1=O)C(=O)c1ccccc1-2 | 2.69 | 7.56 µM | 1.42 | 2.81 µM | 0.808 | 2.44 µM | 1.31 | 2.62 | 1.68 | 3.06 µM | 1.58 | 3.46 | 1.57 | 3.39 µM | 1.86 | 4.82 µM |  |  |
| CC(=O)C1C(c2ccc(N(C)C)cc2)c2cc3c(cc2OC1(C)O)OCO3 (stereo not given) |  |  |  | > 100 µM |  | 55.4 µM |  | 63.5 |  | > 100 µM |  |  |  | > 100 µM |  | > 100 µM | 26.6 |  |
| Cc1nnc(-c2cccc(-c3ccc(C(=O)NCC4CC4)cc3)c2)o1 | > 25 | > 25 µM | > 25 | > 25 µM | > 25 | > 25 µM | > 25 | > 25 | > 25 | > 25 µM | > 25 | > 25 | > 25 | > 25 µM | > 25 | > 25 µM |  |  |
